Assay results taken from patent publication US11046684B2, “Compound for selectively inhibiting kinase and use thereof” (SHANGHAI ZHEYE BIOTECHNOLOGY LIMITED-LIABILITY COMPANY, priority 2017, dated 2021).

tested on: SK-hep-1; test: HCC cell proliferation inhibition, SRB method; type: cell-based; conditions: Homo sapiens, SK-HEP1, 72 hours
Method: (§1) The inhibitory activities of the compounds of the examples on cell proliferation in vitro were tested using five hepatocellular carcinoma cell lines: Hep3B, Huh7, JHH-7, SK-hep-1, SNU423. The above cells were all from ATCC (American Type Culture Collection). Among them, Hep3B, Huh-7, JHH-7 these three cell lines all have FGF19 gene amplification (increased copy number) and increased mRNA expression level, as well as high level expression of FGFR4 and KLB gene mRNA; SK-hep-1, SNU423 cell lines have no FGF19 gene amplification and the expression level of FGF19 mRNA was very low (Barretina J, Caponigro G, et al. Nature 2012; 483: 603-7.).
(§2) Cell proliferation was measured using the SRB (Sulforhodamine-B, sulforhodamine B) method. The cells were cultured to a cell fusion of more than 90% and then trypsinized. After counting, the cells were inoculated into 96-well plates at 6000 cells/well. After adherent culture overnight, the test compound was dissolved in DMSO and diluted with complete medium, added to the culture wells to form a 5-fold dilution of 10 concentration gradients from 10 μM. The cells were incubated for further 72 hours, 50 μl of 50% trichloroacetic acid was added to each well and fixed at 4° C. for 1 hour. The trichloroacetic acid in each well was discarded and washed 5 times with 300 μl of double distilled water. After drying at room temperature, 50 μl of 0.4% SRB dye solution (1% acetic acid/0.4% SRB) was added to each well to react for 15 min. The dye solution of each well was discarded, washed 6-7 times with 1% acetic acid, and dried at room temperature. 200 μl of 10 mM Tris solution (pH=10.5) was added to each well and shaken until the solution was clear. The absorbance at 490 nm of each well was measured by a microplate reader. The reading of the wells where the concentration of the test compound was 0 was used as a control, and fitted with Origin 7.5 software, the IC50 value (nM) of the test substance for inhibiting cell proliferation was calculated.
(§3) The antitumor cell proliferation activities of the compounds of the present invention were measured by the above test, and the measured IC50 (nM) values are shown in Table 2.

IC50 [nM] | SMILES
> 1000 | C#CCNc1cc(NC(=O)N2CCCc3cc(CN4CCN(C)CC4=O)c(C=O)nc32)ncc1C#N [Compound 1]
> 1000 | C#CCCNc1cc(NC(=O)N2CCCc3cc(CN4CCN(C)CC4=O)c(C=O)nc32)ncc1C#N [Compound 2]

tested on: HUH-7; test: HCC cell proliferation inhibition, SRB method; type: cell-based; conditions: Homo sapiens, 72 hours
Method: as §1, §2, §3

IC50 [nM] | SMILES
4 | C#CCNc1cc(NC(=O)N2CCCc3cc(CN4CCN(C)CC4=O)c(C=O)nc32)ncc1C#N [Compound 1]
2.9 | C#CCCNc1cc(NC(=O)N2CCCc3cc(CN4CCN(C)CC4=O)c(C=O)nc32)ncc1C#N [Compound 2]

tested on: Hep3B; test: HCC cell proliferation inhibition, SRB method; type: cell-based; conditions: Homo sapiens, 72 hours
Method: as §1, §2, §3

IC50 [nM] | SMILES
0.35 | C#CCNc1cc(NC(=O)N2CCCc3cc(CN4CCN(C)CC4=O)c(C=O)nc32)ncc1C#N [Compound 1]
0.4 | C#CCCNc1cc(NC(=O)N2CCCc3cc(CN4CCN(C)CC4=O)c(C=O)nc32)ncc1C#N [Compound 2]

tested on: JHH-7; test: HCC cell proliferation inhibition, SRB method; type: cell-based; conditions: JHH7, 72 hours
Method: as §1, §2, §3

IC50 [nM] | SMILES
3 | C#CCNc1cc(NC(=O)N2CCCc3cc(CN4CCN(C)CC4=O)c(C=O)nc32)ncc1C#N [Compound 1]
2.6 | C#CCCNc1cc(NC(=O)N2CCCc3cc(CN4CCN(C)CC4=O)c(C=O)nc32)ncc1C#N [Compound 2]

tested on: SNU387; test: HCC cell proliferation inhibition, SRB method; type: cell-based; conditions: Homo sapiens, SNU-387, 72 hours
Method: [Worded in the source for another cell line; this cell line is reported under the same test.] as §1, §2, §3

IC50 [nM] | SMILES
> 1000 | C#CCNc1cc(NC(=O)N2CCCc3cc(CN4CCN(C)CC4=O)c(C=O)nc32)ncc1C#N [Compound 1]
> 1000 | C#CCCNc1cc(NC(=O)N2CCCc3cc(CN4CCN(C)CC4=O)c(C=O)nc32)ncc1C#N [Compound 2]

target: T1, FGFR2 kinase recombinant protein (Homo sapiens, UniProt P21802); test: Inhibition of FGFR kinase activity, ADP-Glo method; type: biochemical; conditions: 30 min preincubation
T1 construct: purchased Promega
T1 sequence (P21802 22-821): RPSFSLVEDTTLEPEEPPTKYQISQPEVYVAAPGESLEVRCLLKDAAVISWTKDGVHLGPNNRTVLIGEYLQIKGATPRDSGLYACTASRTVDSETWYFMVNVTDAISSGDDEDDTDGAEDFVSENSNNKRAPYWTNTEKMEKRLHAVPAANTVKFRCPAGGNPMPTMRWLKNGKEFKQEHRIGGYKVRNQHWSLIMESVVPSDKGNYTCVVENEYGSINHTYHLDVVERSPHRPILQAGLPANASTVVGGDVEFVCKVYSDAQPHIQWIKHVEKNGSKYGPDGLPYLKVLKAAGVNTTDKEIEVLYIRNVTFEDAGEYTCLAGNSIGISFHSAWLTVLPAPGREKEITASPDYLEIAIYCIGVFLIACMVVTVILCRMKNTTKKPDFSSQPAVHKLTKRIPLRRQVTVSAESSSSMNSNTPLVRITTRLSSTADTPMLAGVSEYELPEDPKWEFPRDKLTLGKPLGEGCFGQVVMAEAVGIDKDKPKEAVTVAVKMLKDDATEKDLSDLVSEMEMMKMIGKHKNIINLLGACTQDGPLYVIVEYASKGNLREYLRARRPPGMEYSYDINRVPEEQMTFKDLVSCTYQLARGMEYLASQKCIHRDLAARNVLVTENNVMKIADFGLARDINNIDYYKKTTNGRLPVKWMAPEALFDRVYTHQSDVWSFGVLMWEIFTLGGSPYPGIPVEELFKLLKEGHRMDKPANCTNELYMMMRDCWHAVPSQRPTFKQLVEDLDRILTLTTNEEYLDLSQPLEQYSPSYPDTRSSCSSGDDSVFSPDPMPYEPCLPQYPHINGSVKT
Method: (§4) The inhibitory activities of the test substances on FGFR kinase were determined by the ADP-Glo method. The human FGFR1, FGFR2 and FGFR4 kinase recombinant proteins and kinase activity assay kit ADP-Glo™ were purchased from Promega, and the FGFR3 kinase recombinant protein was purchased from BPS Bioscience. The test substance, which was diluted gradiently from 1000 nM, was incubated with the FGFR1, FGFR2, FGFR3 or FGFR4 kinase recombinant protein for 30 minutes, reacted with the substrate in the presence of ATP, and ADP-Glo™ detected the generated ADP and further produced chemiluminescence signals. Microplate reader (Perkin Elmer, Envision) were used to determine the reading for each well, and the origin 7.5 was used to calculate and analyze the IC50, i.e. the concentration at which 50% inhibition occurred.
(§5) The inhibition of the compounds of the present invention on FGFR1-4 kinase activity was measured by the above test, and the measured IC50 (nM) values are shown in Table 1.

IC50 [nM] | SMILES
> 1000 | C#CCNc1cc(NC(=O)N2CCCc3cc(CN4CCN(C)CC4=O)c(C=O)nc32)ncc1C#N [Compound 1]
> 1000 | C#CCCNc1cc(NC(=O)N2CCCc3cc(CN4CCN(C)CC4=O)c(C=O)nc32)ncc1C#N [Compound 2]

target: T2, FGFR3 kinase recombinant protein (Homo sapiens, UniProt P22607); test: Inhibition of FGFR kinase activity, ADP-Glo method; type: biochemical; conditions: 30 min preincubation
T2 construct: purchased BPS Bioscience
T2 sequence (P22607 23-806): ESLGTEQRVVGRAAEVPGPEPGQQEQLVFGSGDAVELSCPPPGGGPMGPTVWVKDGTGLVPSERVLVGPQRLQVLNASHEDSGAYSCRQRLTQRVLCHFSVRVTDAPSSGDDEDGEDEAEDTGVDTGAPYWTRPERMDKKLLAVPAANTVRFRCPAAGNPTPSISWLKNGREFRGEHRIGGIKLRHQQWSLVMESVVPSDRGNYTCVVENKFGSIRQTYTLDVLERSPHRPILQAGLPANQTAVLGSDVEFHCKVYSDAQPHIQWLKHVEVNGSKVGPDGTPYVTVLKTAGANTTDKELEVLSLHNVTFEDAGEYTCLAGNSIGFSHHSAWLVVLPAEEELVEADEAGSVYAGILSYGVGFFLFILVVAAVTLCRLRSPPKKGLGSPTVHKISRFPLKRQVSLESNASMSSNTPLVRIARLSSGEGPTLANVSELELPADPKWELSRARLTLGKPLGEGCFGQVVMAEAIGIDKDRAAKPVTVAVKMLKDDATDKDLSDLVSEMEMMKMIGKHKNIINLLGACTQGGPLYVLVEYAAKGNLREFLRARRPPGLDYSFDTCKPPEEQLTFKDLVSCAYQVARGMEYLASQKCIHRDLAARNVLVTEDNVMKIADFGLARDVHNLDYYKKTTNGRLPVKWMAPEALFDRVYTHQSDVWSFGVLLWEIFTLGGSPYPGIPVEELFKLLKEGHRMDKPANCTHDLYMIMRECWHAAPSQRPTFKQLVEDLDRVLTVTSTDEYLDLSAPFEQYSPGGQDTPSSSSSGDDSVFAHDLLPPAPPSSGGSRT
Method: as §4, §5

IC50 [nM] | SMILES
> 1000 | C#CCNc1cc(NC(=O)N2CCCc3cc(CN4CCN(C)CC4=O)c(C=O)nc32)ncc1C#N [Compound 1]
> 1000 | C#CCCNc1cc(NC(=O)N2CCCc3cc(CN4CCN(C)CC4=O)c(C=O)nc32)ncc1C#N [Compound 2]

target: T3, FGFR4 kinase recombinant protein (Homo sapiens, UniProt P22455); test: Inhibition of FGFR kinase activity, ADP-Glo method; type: biochemical; conditions: 30 min preincubation
T3 construct: purchased Promega
T3 sequence (P22455 22-802): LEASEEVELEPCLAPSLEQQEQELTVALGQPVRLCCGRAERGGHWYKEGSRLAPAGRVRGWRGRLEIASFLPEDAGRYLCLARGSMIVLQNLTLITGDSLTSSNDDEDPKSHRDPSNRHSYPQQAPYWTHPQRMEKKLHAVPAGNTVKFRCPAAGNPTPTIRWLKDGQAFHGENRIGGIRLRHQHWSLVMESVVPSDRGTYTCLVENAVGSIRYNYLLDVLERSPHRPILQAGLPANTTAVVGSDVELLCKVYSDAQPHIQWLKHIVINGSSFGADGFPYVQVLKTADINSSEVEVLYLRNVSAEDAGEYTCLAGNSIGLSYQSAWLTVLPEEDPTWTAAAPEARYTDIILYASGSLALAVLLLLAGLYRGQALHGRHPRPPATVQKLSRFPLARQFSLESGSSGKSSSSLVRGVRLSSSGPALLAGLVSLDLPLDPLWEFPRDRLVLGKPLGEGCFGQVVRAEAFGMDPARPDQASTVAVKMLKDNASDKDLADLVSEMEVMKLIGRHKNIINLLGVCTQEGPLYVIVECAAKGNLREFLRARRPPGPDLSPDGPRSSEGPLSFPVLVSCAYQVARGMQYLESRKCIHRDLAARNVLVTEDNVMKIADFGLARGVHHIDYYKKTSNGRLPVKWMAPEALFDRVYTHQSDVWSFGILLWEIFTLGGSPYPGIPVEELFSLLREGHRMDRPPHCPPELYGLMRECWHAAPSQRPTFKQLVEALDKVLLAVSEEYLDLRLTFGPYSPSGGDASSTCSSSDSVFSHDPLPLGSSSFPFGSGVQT
Method: as §4, §5

IC50 [nM] | SMILES
0.41 | C#CCNc1cc(NC(=O)N2CCCc3cc(CN4CCN(C)CC4=O)c(C=O)nc32)ncc1C#N [Compound 1]
0.33 | C#CCCNc1cc(NC(=O)N2CCCc3cc(CN4CCN(C)CC4=O)c(C=O)nc32)ncc1C#N [Compound 2]

target: T4, FGFR1 kinase recombinant protein (Homo sapiens, UniProt P11362); test: Inhibition of FGFR kinase activity, ADP-Glo method; type: biochemical; conditions: 30 min preincubation
T4 construct: purchased Promega
T4 sequence (P11362 22-822): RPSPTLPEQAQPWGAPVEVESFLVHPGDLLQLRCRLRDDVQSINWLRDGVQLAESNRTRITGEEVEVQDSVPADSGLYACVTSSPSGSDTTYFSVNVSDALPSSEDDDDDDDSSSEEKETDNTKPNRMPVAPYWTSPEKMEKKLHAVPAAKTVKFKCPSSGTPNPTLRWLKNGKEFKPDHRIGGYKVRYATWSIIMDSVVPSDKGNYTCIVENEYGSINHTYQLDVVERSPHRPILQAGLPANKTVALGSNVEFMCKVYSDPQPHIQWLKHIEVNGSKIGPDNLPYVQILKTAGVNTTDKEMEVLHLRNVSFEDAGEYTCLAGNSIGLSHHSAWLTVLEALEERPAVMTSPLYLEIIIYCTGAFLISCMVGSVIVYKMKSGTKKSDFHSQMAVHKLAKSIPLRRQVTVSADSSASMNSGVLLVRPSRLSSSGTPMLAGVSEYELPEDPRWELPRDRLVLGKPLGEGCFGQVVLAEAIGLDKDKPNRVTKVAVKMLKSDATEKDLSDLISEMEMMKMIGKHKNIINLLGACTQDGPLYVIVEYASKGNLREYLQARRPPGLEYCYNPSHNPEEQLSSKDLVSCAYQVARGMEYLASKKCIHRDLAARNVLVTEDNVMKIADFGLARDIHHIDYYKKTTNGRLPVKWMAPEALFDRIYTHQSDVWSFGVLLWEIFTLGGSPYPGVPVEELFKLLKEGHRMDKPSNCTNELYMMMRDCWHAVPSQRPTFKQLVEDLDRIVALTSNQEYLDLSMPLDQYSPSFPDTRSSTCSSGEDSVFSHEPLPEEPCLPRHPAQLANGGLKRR
Method: as §4, §5

IC50 [nM] | SMILES
> 1000 | C#CCNc1cc(NC(=O)N2CCCc3cc(CN4CCN(C)CC4=O)c(C=O)nc32)ncc1C#N [Compound 1]
> 1000 | C#CCCNc1cc(NC(=O)N2CCCc3cc(CN4CCN(C)CC4=O)c(C=O)nc32)ncc1C#N [Compound 2]

tested on: HCC cells with FGF19 gene amplification; test: HCC cell line panel proliferation, selectivity conclusion; type: cell-based; conditions: conclusion from Table 2
Method: as §1, §2

SMILES | selective inhibitory effect on HCC cells with FGF19 gene amplification
C#CCNc1cc(NC(=O)N2CCCc3cc(CN4CCN(C)CC4=O)c(C=O)nc32)ncc1C#N [Compound 1] | significant selective inhibitory effect
C#CCCNc1cc(NC(=O)N2CCCc3cc(CN4CCN(C)CC4=O)c(C=O)nc32)ncc1C#N [Compound 2] | significant selective inhibitory effect

tested on: Hep3B transplantation tumor; test: HCC cell subcutaneous transplantation tumor growth inhibition test in nude mice; type: in vivo; conditions: 50 mg/kg, intragastric, BID 21 days, Hep3B nude mice
Method: The Hep3B cells in the logarithmic growth phase were cultured and collected, and subcutaneously inoculated into the right back of nude mice (female Balb/c Nude mice, from Beijing Vitalriver) at 1×10^7 cells/mouse. When the tumor grew to 50-300 mm^3, tumor-bearing nude mice were randomly grouped, 6 animals per group. Subsequently, each group of animals was administered at the following dose, and the day of the first dose was defined as the first day of the test.
Blank solvent (ultra-pure water) control group, compound 1, compound 2 were respectively set to 50 mg/kg, 100 mg/kg, 150 mg/kg three dose groups, intragastric administration, twice a day (BID), for 21 consecutive days. The state of the animals was observed daily during the administration; the body weight was measured once a week before the first administration; and the body weight was measured twice a week after the start of the administration. The size of the transplantation tumor was measured every 3 days after the start of administration. Tumor volume (TV)=½×a×b^2, wherein, a and b represent the length and width of the tumor, respectively. The relative tumor volume (RTV) was calculated based on the measured results, RTV=Vt/V0×100, wherein V0 is the measured tumor volume on the day of the cage (i.e., day 0), and Vt is the tumor volume at each measurement.
After establishing the Hep3B nude mice transplantation tumor model according to the method described above, the mice were divided into three groups and intragastrically administered with a blank solvent (ultra-pure water) control, compound 1 (15 mg/kg, BID), sorafenib (prepared according to the method described in the literature CN1721397A and identified) respectively, 30 mg/kg, once a day (QD), for 21 consecutive days. The growth inhibition on the transplantation tumor of the test substances, animal status and body weight were evaluated in the same manner as above. The tumor volume (TV) was measured and the tumor inhibition rate was calculated according to the tumor inhibition rate (TGI)=(1−T/C)×100%. C: average tumor volume of the control group; T: average tumor volume of the administration group.

SMILES | growth inhibition of the transplantation tumor
C#CCNc1cc(NC(=O)N2CCCc3cc(CN4CCN(C)CC4=O)c(C=O)nc32)ncc1C#N [Compound 1] | significant
C#CCCNc1cc(NC(=O)N2CCCc3cc(CN4CCN(C)CC4=O)c(C=O)nc32)ncc1C#N [Compound 2] | significant

same assay, conditions: all dose groups 50, 100, 150 mg/kg BID, 21 days, tumor-bearing nude mice

SMILES | adverse reactions (water and food take, activity, body weight) during administration
C#CCNc1cc(NC(=O)N2CCCc3cc(CN4CCN(C)CC4=O)c(C=O)nc32)ncc1C#N [Compound 1] | no adverse reactions occurred
C#CCCNc1cc(NC(=O)N2CCCc3cc(CN4CCN(C)CC4=O)c(C=O)nc32)ncc1C#N [Compound 2] | no adverse reactions occurred

same assay, conditions: compound 1 15 mg/kg BID, Hep3B nude mouse transplantation tumor model

SMILES | efficacy compared with sorafenib 30 mg/kg QD
C#CCNc1cc(NC(=O)N2CCCc3cc(CN4CCN(C)CC4=O)c(C=O)nc32)ncc1C#N [Compound 1] | superior to that of sorafenib
